Assay results taken from publication PMC11562385 (RSC Chemical Biology, 2024).
Like-named read-outs stand apart in the source and are kept apart here. Square brackets hold non-standard residues; d marks the D form. Peptide text beside a SMILES is read from it. * marks the point of attachment. Dab = NCC[C@H](N)C(=O)O; X1 = CN(C)C/C=C/C(=O)*

How the values were obtained:
PD1:PDL1 interaction = target: T1, PD1:PDL1 interaction (Homo sapiens, UniProt Q15116); assay: PD1/PDL1 immunoblocking ELISA (BPS Bioscience kit cat # 72005); assay type: binding; conditions: for LE (ligand efficiency): LE = -RTln(EC50)/HA, HA = non-hydrogen atoms omitting the strap (RWV•••VWE)
T1 construct: purchased BPS Bioscience 72005
T1 sequence (Q15116 25-167 limits assumed): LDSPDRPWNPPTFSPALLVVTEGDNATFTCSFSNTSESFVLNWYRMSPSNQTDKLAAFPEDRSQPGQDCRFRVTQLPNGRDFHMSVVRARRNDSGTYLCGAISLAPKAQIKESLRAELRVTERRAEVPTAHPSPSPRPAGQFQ

[1] = Variable-temperature CD melting curves (CD-melts at 228±2 nm and 202±2 nm), individual and global two-state fits; assay type: physicochemical; parameters: DSo: unit not given here; conditions: for ΔGF0: CD-melt at 228±2 nm, individual two-state Gibbs-Helmholtz fit (Origin 9.0), phosphate buffer 15 mM pH 6.5 ± MeOH; for TM (°C): Fig. 2, CD-melts of regular vs bulged scaffolds; for -TΔSF0 / ΔCpF0 / ΔHF0 / ΔHm: as E16; for VT-CD %-fold: folded fraction (χF) at 25 °C from CD-melts, (R) regular / (B) bulged fold; for VT-CD %-fold / VT-CD Tm (°C): phosphate buffer 15 mM pH 6.5, up to 20% MeOH; for VT-CD Tm (°C): melting temperature from CD-melts
Outline: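 Far-UV CD melts (0 to 95 °C) at 15-120 µM peptide in 15 mM phosphate buffer, concentration set by Trp/Tyr absorbance at 280 nm; CD-exciton intensity taken as %-folding probe. Melting curves fitted individually and globally to a two-state model.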

[2] = ELISA, mean of three independent experiments, read-out: EC50 Value
[3] = [PD1•PDL1] blocking EC50, Fig. 3B, cut-off bars of congeneric pairs (Phe/Trp vs Gly), n = 3
[4] = Table S5, individual fit, 228±2 nm
[5] = Table S5, individual fit, 291 K
[6] = Table S5, individual fit, 310 K
[7] = xlsx sheet of the peptide, individual fit of CD-melt
[8] = two-state fit of the CD melt θ - θcoil(95) vs T, 0-95 °C, l 0.1 cm, peptide c 3.2e-5 to 5e-5 M
[9] = variable-temperature CD melt 0-95 °C, θ - θcoil(95) vs T, l = 0.1 cm, individual two-state fit

| SMILES | EC50 (PD1:PDL1 interaction; [2]) | LE (ligand efficiency) (PD1:PDL1 interaction) | EC50 (PD1:PDL1 interaction; [3]) | ΔGF0 ([1]; 0-95 °C) | TM (°C) [1] | Tm [1, 4] | Hairpin %-fold 291K [1, 5] | Hairpin %-fold 310K [1, 6] | -TΔSF0 [1] | ΔCpF0 [1] | ΔHF0 [1] | VT-CD %-fold [1] | VT-CD Tm (°C) [1] | ΔHm [1] | further results |
| --- | --- | --- | --- | --- | --- | --- | --- | --- | --- | --- | --- | --- | --- | --- | --- |
| CSCC[C@H](NC(=O)[C@H](CC(=O)O)NC(=O)CNC(=O)[C@H](CCCNC(=N)N)NC(=O)[C@H](Cc1ccc(O)cc1)NC(=O)[C@H](CC(=O)O)NC(=O)[C@H](CCCNC(=N)N)NC(=O)[C@H](CCCNC(=N)N)NC(=O)[C@H](C)NC(=O)[C@@H](NC(=O)[C@H](Cc1c[nH]c2ccccc12)NC(=O)[C@@H](N)CCCNC(=N)N)C(C)C)C(=O)NCC(=O)N[C@@H](Cc1ccccc1)C(=O)N[C@@H](CC(=O)O)C(=O)N[C@@H](Cc1ccc(O)cc1)C(=O)N[C@@H](Cc1c[nH]c2ccccc12)C(=O)N[C@H](C(=O)N[C@@H](Cc1c[nH]c2ccccc12)C(=O)N[C@@H](CCC(=O)O)C(=O)O)C(C)C [2b] (H-RWVARRDYRGDMGFDYWVWE-OH) | 7.05 µM | 0.06 | > 5 µM | -1.24 ± 0.01 kcal/mol | 59 °C | 59.1 oC | 92 ± 1% | 81 ± 1% | 7.65 ± 0.03 kcal/mol | -193 ±1 cal.deg-1.mol-1 | -8.89 ± 0.03 kcal/mol | 92% (B) | 59 °C | – | DHm, fitted value from OriginPro [1, 7]: -15.492 kcal/mol; Tm, fitted value from OriginPro [1, 7]: 332.248 K |
| CC(C)[C@H](NC(=O)[C@H](Cc1c[nH]c2ccccc12)NC(=O)[C@@H](N)CCCNC(=N)N)C(=O)N[C@@H](C)C(=O)N[C@@H](CCCNC(=N)N)C(=O)N[C@@H](CCCNC(=N)N)C(=O)N[C@@H](CC(=O)O)C(=O)N[C@@H](Cc1ccc(O)cc1)C(=O)N[C@@H](CCCNC(=N)N)C(=O)N[C@@H](Cc1ccccc1)C(=O)N[C@@H](CC(=O)O)C(=O)N[C@@H](CCNC(=O)/C=C/CN(C)C)C(=O)NCC(=O)N[C@@H](Cc1ccccc1)C(=O)N[C@@H](CC(=O)O)C(=O)N[C@@H](Cc1ccc(O)cc1)C(=O)N[C@@H](Cc1c[nH]c2ccccc12)C(=O)N[C@H](C(=O)N[C@@H](Cc1c[nH]c2ccccc12)C(=O)N[C@@H](CCC(=O)O)C(=O)O)C(C)C [2cc] (H-RWVARRDYRFD[Dab](X1)GFDYWVWE-OH; N-terminus assumed) | – | 0.13 | – | -0.93 ± 0.002 kcal/mol | – | 48.7 oC | 87 ± 1% | 70 ± 1% | 8.50 ± 0.04 kcal/mol | -268 ± 2 cal.deg-1.mol-1 | -9.43 ± 0.04 kcal/mol | – | – | -15.8 ± 0.04 kcal/mol | Tm 228 nm Glob. ([1]; global fit (shared maximum molar ellipticity), 228 nm): 51.7 oC; Tm 202 nm Glob. ([1]; global fit, 202 nm): 9.7 oC; χF (291 K) 202 nm Glob. ([1]; global fit, 202 nm, 291 K): 47%; χF (291 K) 228 nm Glob. ([1]; global fit, 228 nm, 291 K): 95%; χF (291 K) 202 nm Indiv. ([1]; individual fit, 202 nm, 291 K): 83%; χF (291 K) 228 nm Indiv. ([1]; individual fit, 228 nm, 291 K): 88%; Tm 228 nm Indiv. ([1]; individual fit, exciton band 228 nm): 49.8 oC; Tm 202 nm Indiv. ([1]; individual fit, β-bulge band 202 nm): 44.3 oC; DHm (fitted value, OriginPro) ([1]; two-state fit of the CD melt (θ - θcoil(95) vs T, 0-95 °C), l 0.1 cm, enthalpy of folding at Tm): -15.8096 kcal/mol |
| CSCC[C@H](NC(=O)[C@H](CC(=O)O)NC(=O)CNC(=O)[C@H](CCCNC(=N)N)NC(=O)[C@H](Cc1ccc(O)cc1)NC(=O)[C@H](CC(=O)O)NC(=O)[C@H](CCCNC(=N)N)NC(=O)[C@H](CCCNC(=N)N)NC(=O)[C@H](C)NC(=O)[C@@H](NC(=O)[C@H](Cc1c[nH]c2ccccc12)NC(=O)[C@@H](N)CCCNC(=N)N)C(C)C)C(=O)NCC(=O)N[C@@H](Cc1ccccc1)C(=O)N[C@@H](CC(N)=O)C(=O)N[C@@H](Cc1ccc(O)cc1)C(=O)N[C@@H](Cc1c[nH]c2ccccc12)C(=O)N[C@H](C(=O)N[C@@H](Cc1c[nH]c2ccccc12)C(=O)N[C@@H](CCC(=O)O)C(=O)O)C(C)C [2j] (H-RWVARRDYRGDMGFNYWVWE-OH) | – | 0.07 | – | -1.63 ± 0.01 kcal/mol | – | 57.8 oC | 97 ± 1% | 84 ± 1% | 14.3 ± 0.09 kcal/mol | -29 ± 3 cal.deg-1.mol-1 | -15.9 ± 0.02 kcal/mol | 97% (B) | 58 °C | -16.8 ± 0.03 kcal/mol | EC50 (PD1:PDL1 interaction; PD1:PDL1 inhibition EC50, ELISA, PDL1-coated plate, biotin-labeled human PD-1, 2 h rt, chemiluminescence, Hill fit, mean ± SD, n = 3, SD): 0.1 ± 0.01 µM; DHm (fitted value, results from OriginPro) [1, 8]: -16.8394 kcal/mol; Tm (fitted value, results from OriginPro) [1, 8]: 330.952 K |
| CSCC[C@H](NC(=O)[C@H](CC(=O)O)NC(=O)CNC(=O)[C@H](CCCNC(=N)N)NC(=O)[C@H](Cc1ccc(O)cc1)NC(=O)[C@H](CC(=O)O)NC(=O)[C@H](CCCNC(=N)N)NC(=O)[C@H](Cc1c[nH]c2ccccc12)NC(=O)[C@@H](NC(=O)[C@H](Cc1c[nH]c2ccccc12)NC(=O)[C@@H](N)CCCNC(=N)N)C(C)C)C(=O)NCC(=O)N[C@@H](Cc1ccccc1)C(=O)N[C@@H](CC(=O)O)C(=O)N[C@@H](Cc1c[nH]c2ccccc12)C(=O)N[C@H](C(=O)N[C@@H](Cc1c[nH]c2ccccc12)C(=O)N[C@@H](CCC(=O)O)C(=O)O)C(C)C [1b] (H-RWVWRDYRGDMGFDWVWE-OH) | 7.08 µM | 0.06 | > 5 µM | -0.64 ± 0.01 kcal/mol | 47 °C | 46.9 oC | 81 ± 1% | 62 ± 1% | 8.29 ± 0.02 kcal/mol | -41 ± 1 cal.deg-1.mol-1 | -8.94 ± 0.02 kcal/mol | 81% (R) | 47 °C | -9.84 ± 0.01 kcal/mol | DCp (fitted value) ([1]; CD-melt of 1b, c 3.4e-5 M, l 0.1 cm, two-state fit in OriginPro): -40.77 cal/(deg.mol); DHm (fitted value) ([1]; CD-melt of 1b, c 3.4e-5 M, l 0.1 cm, two-state fit in OriginPro, enthalpy at Tm): -9.84462 kcal/mol; cF(18 oC), fraction folded ([1]; CD-melt of 1b, two-state fit in OriginPro, 18 °C): 81%; TDSo ([1]; CD-melt of 1b, two-state fit in OriginPro, standard-state entropic term): -8.2949 kcal/mol; DHo ([1]; CD-melt of 1b, two-state fit in OriginPro, standard-state folding enthalpy): -8.9431 kcal/mol; DSo ([1]; CD-melt of 1b, two-state fit in OriginPro, standard-state folding entropy): -27.84; DGo ([1]; CD-melt of 1b, two-state fit in OriginPro, standard-state folding free energy): -0.6482 kcal/mol; Tm ([1]; CD-melt of 1b, two-state fit in OriginPro, the fitted Tm restated without a unit (apparently °C)): 47 °C; %fold 291K ([1]; CD-melt of 1b, two-state fit, 291 K): 81%; %fold 310K ([1]; CD-melt of 1b, two-state fit, 310 K): 62%; Tm (fitted value) ([1]; CD-melt of 1b, θ - θcoil(95) vs T 0-95 °C, c 3.4e-5 M, l 0.1 cm, two-state fit in OriginPro): 320.113 K |
| CSCC[C@H](NC(=O)[C@H](CC(=O)O)NC(=O)CNC(=O)[C@H](CCCNC(=N)N)NC(=O)[C@H](Cc1ccc(O)cc1)NC(=O)[C@H](CC(=O)O)NC(=O)[C@H](CCCNC(=N)N)NC(=O)[C@H](CCCNC(=N)N)NC(=O)[C@H](C)NC(=O)[C@@H](NC(=O)[C@H](Cc1c[nH]c2ccccc12)NC(=O)[C@@H](N)CCCNC(=N)N)C(C)C)C(=O)NCC(=O)N[C@@H](Cc1ccccc1)C(=O)N[C@@H](CC(=O)O)C(=O)N[C@@H](Cc1ccc(O)cc1)C(=O)N[C@@H](Cc1c[nH]c2ccccc12)C(=O)N[C@@H](Cc1c[nH]cn1)C(=O)N[C@@H](Cc1c[nH]c2ccccc12)C(=O)N[C@@H](CCC(=O)O)C(=O)O [2d] (H-RWVARRDYRGDMGFDYWHWE-OH) | – | 0.06 | – | -1.59 ± 0.01 kcal/mol | – | 50.9 oC | 97 ± 1% | 80 ± 1% | 18.2 ± 0.2 kcal/mol | 0 cal.deg-1.mol-1 | -19.8 ± 0.2 kcal/mol | 97% (B) | 51 °C | -19.8 ± 0.07 kcal/mol | %fold 291K ([1]; fraction folded at 291 K from two-state fit of CD-melt): 97%; DHm (fitted value, OriginPro two-state fit of CD-melt) [1, 9]: -19.8087 kcal/mol; Tm (fitted value, OriginPro two-state fit of CD-melt) [1, 9]: 324.048 K |
